Assay results as given in publication PMC13128454, “Mutant p53 protein accumulation is selectively targetable by proximity-inducing drugs” (Nature Chemical Biology, 2025).
Values joined by “and” are separate entries in the source; they are usually repeats but may differ in a detail not shown here. Identical values can stand only once. Like-named read-outs stand apart in the source and are kept apart here.

Experiments:
Type in all cases: cell-based
[1] = CellTiter-Glo cell viability; conditions: human, p53_construct Mut, CTG 4 days, read-out: mean (normalized viability)
[2] = system: Calu-1 cells stably expressing Halo–p53-R273H (FL)–mCherry–2A–mTagBFP2-V5; assay: CellTiter-Glo cell viability; conditions: CTG 4 days; for replicates (raw CTG signal): p53_construct Mut
[3] = system: Calu-1 cells stably expressing Halo–p53 WT (FL)–mCherry–2A–mTagBFP2-V5; assay: CellTiter-Glo cell viability; conditions: for mean_norm: Cell_Type WT; for replicates (raw CTG signal): p53_construct WT, CTG 4 days
Description: (§1) Cells were plated in 384-well plates (typically 1,500 cells per well) with varying concentrations of compounds, with a total volume of 50 μl per well. CTG reagent was added (25 μl) to the solutions, mixed and read out using an EnVision 2105 multimode plate reader.

[4] = system: Calu-1 cells stably expressing Halo–p53-Y220C (FL)–mCherry–2A–mTagBFP2-V5; assay: CellTiter-Glo cell viability; conditions: Cell_Type Y220C
Description: as §1

Question: With `CC[C@@H]1C(=O)N(C)c2cnc(Nc3ccc(C(=O)NC4CCN(C)CC4)cc3OC)nc2N1C1CCCC1` [BI2536] as the compound, how does the viability at 4 days ([1]; Compound_conc 0.0488281) read?
Answer: 112%

Question: And the viability at 4 days ([1]; Compound_conc 0.0976562)?
Answer: 115%

Question: What about the viability at 4 days ([1]; Compound_conc 0.195312) of the same compound?
Answer: 107%

Question: What about the viability at 4 days ([1]; Compound_conc 0.390625) of the same compound?
Answer: 106%

Question: And the viability at 4 days ([1]; Compound_conc 0.78125)?
Answer: 119%

Question: And the viability at 4 days ([1]; Compound_conc 1.5625)?
Answer: 104%

Question: What about the viability at 4 days ([1]; Compound_conc 3.125) of the same compound?
Answer: 113%

Question: What about the viability at 4 days ([1]; Compound_conc 6.25) of the same compound?
Answer: 84.3%

Question: And the viability at 4 days ([1]; Compound_conc 12.5)?
Answer: 70.7%

Question: What about the viability at 4 days ([1]; Compound_conc 25) of the same compound?
Answer: 62%

Question: And the viability at 4 days ([1]; Compound_conc 50)?
Answer: 47.3%

Question: What about the viability at 4 days ([1]; Compound_conc 100) of the same compound?
Answer: 41.4%

Question: And the “differential proliferation effect” value ([2]; Calu-1 p53 WT versus p53-R273H)?
Answer: lacked a differential proliferation effect

Question: What about the “replicates (raw CTG signal)” value ([2]; Compound_conc 0.0488281) of the same compound?
Answer: 197890 and 183273 and 187583 and 162992

Question: And the “replicates (raw CTG signal)” value ([2]; Compound_conc 0.0976562)?
Answer: 191053 and 161144 and 203266 and 199816

Question: What about the “replicates (raw CTG signal)” value ([2]; Compound_conc 0.195312) of the same compound?
Answer: 176045 and 169600 and 186049 and 169525

Question: And the “replicates (raw CTG signal)” value ([2]; Compound_conc 0.390625)?
Answer: 185229 and 162171 and 189977 and 157434

Question: What about the “replicates (raw CTG signal)” value ([2]; Compound_conc 0.78125) of the same compound?
Answer: 218482 and 178554 and 204635 and 180452

Question: And the “replicates (raw CTG signal)” value ([2]; Compound_conc 1.5625)?
Answer: 174155 and 148473 and 186714 and 171263

Question: And the “replicates (raw CTG signal)” value ([2]; Compound_conc 3.125)?
Answer: 194944 and 176651 and 192942 and 172246

Question: What about the “replicates (raw CTG signal)” value ([2]; Compound_conc 6.25) of the same compound?
Answer: 144484 and 119258 and 155344 and 132872

Question: And the “replicates (raw CTG signal)” value ([2]; Compound_conc 12.5)?
Answer: 123471 and 113233 and 124855 and 101499

Question: What about the “replicates (raw CTG signal)” value ([2]; Compound_conc 25) of the same compound?
Answer: 102356 and 92186 and 120326 and 90854

Question: What about the “replicates (raw CTG signal)” value ([2]; Compound_conc 50) of the same compound?
Answer: 87813 and 79696 and 71081 and 71223

Question: And the “replicates (raw CTG signal)” value ([2]; Compound_conc 100)?
Answer: 63459 and 73795 and 72267 and 61765

Question: What about the mean_norm ([3]; Concentration 0.00976562) of the same compound?
Answer: 0.9965

Question: And the mean_norm ([3]; Concentration 0.0195312)?
Answer: 0.9819

Question: And the mean_norm ([3]; Concentration 0.0390625)?
Answer: 0.9464

Question: What about the mean_norm ([3]; Concentration 0.078125) of the same compound?
Answer: 0.9231

Question: And the mean_norm ([3]; Concentration 0.15625)?
Answer: 0.8923

Question: And the mean_norm ([3]; Concentration 0.3125)?
Answer: 0.9222

Question: And the mean_norm ([3]; Concentration 0.625)?
Answer: 0.8706

Question: And the mean_norm ([3]; Concentration 1.25)?
Answer: 0.9152

Question: What about the mean_norm ([3]; Concentration 2.5) of the same compound?
Answer: 0.732

Question: What about the mean_norm ([3]; Concentration 5) of the same compound?
Answer: 0.654

Question: What about the “replicates (raw CTG signal)” value ([3]; Compound_conc 0.0488281) of the same compound?
Answer: 244635 and 211925 and 234768 and 234225

Question: What about the “replicates (raw CTG signal)” value ([3]; Compound_conc 0.0976562) of the same compound?
Answer: 273323 and 237458 and 247150 and 303994

Question: What about the “replicates (raw CTG signal)” value ([3]; Compound_conc 0.195312) of the same compound?
Answer: 238397 and 225982 and 259666 and 218737

Question: And the “replicates (raw CTG signal)” value ([3]; Compound_conc 0.390625)?
Answer: 236109 and 227126 and 240832 and 277749

Question: What about the “replicates (raw CTG signal)” value ([3]; Compound_conc 0.78125) of the same compound?
Answer: 245303 and 237908 and 252002 and 245374

Question: What about the “replicates (raw CTG signal)” value ([3]; Compound_conc 1.5625) of the same compound?
Answer: 272283 and 224772 and 244085 and 261410

Question: What about the “replicates (raw CTG signal)” value ([3]; Compound_conc 3.125) of the same compound?
Answer: 243376 and 233836 and 240215 and 246677

Question: What about the “replicates (raw CTG signal)” value ([3]; Compound_conc 6.25) of the same compound?
Answer: 186650 and 172938 and 193716 and 217878

Question: What about the “replicates (raw CTG signal)” value ([3]; Compound_conc 12.5) of the same compound?
Answer: 153573 and 146180 and 148955 and 165621

Question: And the “replicates (raw CTG signal)” value ([3]; Compound_conc 25)?
Answer: 156770 and 147371 and 141939 and 149390

Question: And the “replicates (raw CTG signal)” value ([3]; Compound_conc 50)?
Answer: 121176 and 111722 and 112653 and 125709

Question: And the “replicates (raw CTG signal)” value ([3]; Compound_conc 100)?
Answer: 91299 and 91521 and 110253 and 107241

Question: What about the mean_norm ([4]; Concentration 0.00976562) of the same compound?
Answer: 1.033

Question: And the mean_norm ([4]; Concentration 0.0195312)?
Answer: 1.042

Question: And the mean_norm ([4]; Concentration 0.0390625)?
Answer: 1.012

Question: And the mean_norm ([4]; Concentration 0.078125)?
Answer: 1.001

Question: What about the mean_norm ([4]; Concentration 0.15625) of the same compound?
Answer: 1.013

Question: What about the mean_norm ([4]; Concentration 0.3125) of the same compound?
Answer: 0.9845

Question: What about the mean_norm ([4]; Concentration 0.625) of the same compound?
Answer: 0.8987

Question: What about the mean_norm ([4]; Concentration 1.25) of the same compound?
Answer: 0.7731

Question: What about the mean_norm ([4]; Concentration 2.5) of the same compound?
Answer: 0.741

Question: What about the mean_norm ([4]; Concentration 5) of the same compound?
Answer: 0.654
